Laboratory results as given in PubChem BioAssay (NCI).
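A five-concentration, 48-hour dose response in 96-well plates underlies each endpoint, interpolated linearly between surrounding concentrations. Abbreviation: GI50, concentration required for 50% inhibition of growth. TGI denotes the concentration required for complete inhibition of growth.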

Tests used:
Experiment in all cases: NCI anticancer screen, dose series, 48 h
SK-OV-3 ovarian = tested on: SK-OV-3 ovarian
HCT-116 colon = tested on: HCT-116 colon
EKVX NSCLC = tested on: EKVX NSCLC
OVCAR-8 ovarian = tested on: OVCAR-8 ovarian
KM12 colon = tested on: KM12 colon
HCT-15 colon = tested on: HCT-15 colon
HOP-92 NSCLC = tested on: HOP-92 NSCLC
RXF 393 renal = tested on: RXF 393 renal
COLO 205 colon = tested on: COLO 205 colon
HOP-62 NSCLC = tested on: HOP-62 NSCLC

Compound O=C1C(=O)N(C2C3CC4CC(C3)CC2C4)C(=O)C(=O)C1c1nc2ccccc2o1 (stereo not given) has a TGI (SK-OV-3 ovarian) of over 100 µM, a TGI (HCT-116 colon) of over 100 µM and a TGI (EKVX NSCLC) of over 100 µM. For the same compound, the TGI (OVCAR-8 ovarian) was over 100 µM, the TGI (KM12 colon) was over 100 µM and the TGI (HCT-15 colon) was over 100 µM. For the same compound, the TGI (HOP-92 NSCLC) was over 100 µM, the TGI (RXF 393 renal) was over 100 µM and the TGI (COLO 205 colon) was over 100 µM. It also gave a TGI (HOP-62 NSCLC) of over 100 µM.

For CC(C)OC(=O)c1ccc2[nH]c(O)c(C(=Nc3ccc(N(C)C(=O)CN4CCN(C)CC4)cc3)c3ccccc3)c2c1, the GI50 (SK-OV-3 ovarian) was 0.308 µM, the TGI (SK-OV-3 ovarian) was 1.34 µM and the GI50 (HCT-116 colon) was 0.149 µM. It also gave a TGI (HCT-116 colon) of 1.28 µM, a GI50 (EKVX NSCLC) of 1.11 µM and a TGI (EKVX NSCLC) of 2.49 µM. For the same compound, the GI50 (OVCAR-8 ovarian) was 0.622 µM, the TGI (OVCAR-8 ovarian) was 3.17 µM and the GI50 (KM12 colon) was 0.0251 µM. The TGI (KM12 colon) was 1.56 µM, the GI50 (HCT-15 colon) was 0.372 µM and the TGI (HCT-15 colon) was 1.52 µM. It also gave a GI50 (HOP-92 NSCLC) of 0.243 µM, a TGI (HOP-92 NSCLC) of 1.71 µM and a GI50 (RXF 393 renal) of 0.224 µM. It also gave a TGI (RXF 393 renal) of 0.652 µM, a GI50 (COLO 205 colon) of 0.285 µM and a TGI (COLO 205 colon) of 1.41 µM. The GI50 (HOP-62 NSCLC) was 0.471 µM and the TGI (HOP-62 NSCLC) was 2.4 µM.

COc1ccc2c(c1)C(=O)c1c-2n(CCCN2CCOCC2)c(=O)c2ccccc12 showed a GI50 (SK-OV-3 ovarian) of 3.27 µM, a TGI (SK-OV-3 ovarian) of 12.1 µM and a GI50 (HCT-116 colon) of 1.66 µM. For the same compound, the TGI (HCT-116 colon) was 4.54 µM, the GI50 (EKVX NSCLC) was 4.52 µM and the TGI (EKVX NSCLC) was over 89.2 µM. The GI50 (OVCAR-8 ovarian) was 3.45 µM, the TGI (OVCAR-8 ovarian) was over 100 µM and the GI50 (KM12 colon) was 3.64 µM. The TGI (KM12 colon) was 42.5 µM, the GI50 (HCT-15 colon) was 3.64 µM and the TGI (HCT-15 colon) was over 100 µM. The GI50 (HOP-92 NSCLC) was 8.39 µM, the TGI (HOP-92 NSCLC) was over 57.5 µM and the GI50 (RXF 393 renal) was 3.22 µM. For the same compound, the TGI (RXF 393 renal) was over 21.6 µM, the GI50 (COLO 205 colon) was 2.81 µM and the TGI (COLO 205 colon) was over 41 µM. For the same compound, the GI50 (HOP-62 NSCLC) was 1.7 µM and the TGI (HOP-62 NSCLC) was 6.16 µM.

O=C(O)c1c[nH]cc1C(=O)O showed a TGI (SK-OV-3 ovarian) of over 100 µM, a TGI (HCT-116 colon) of over 100 µM and a TGI (EKVX NSCLC) of over 100 µM. It also gave a TGI (OVCAR-8 ovarian) of over 100 µM, a TGI (KM12 colon) of over 100 µM and a TGI (HCT-15 colon) of over 100 µM. It also gave a TGI (HOP-92 NSCLC) of over 100 µM, a TGI (RXF 393 renal) of over 100 µM and a TGI (COLO 205 colon) of over 100 µM. It also gave a TGI (HOP-62 NSCLC) of over 100 µM.

With Clc1ccc(CN2COc3c(cc(Cl)c4cccnc34)C2)cc1 the TGI (SK-OV-3 ovarian) was 13.3 µM, the TGI (HCT-116 colon) was 5.49 µM and the TGI (EKVX NSCLC) was 14.2 µM. It also gave a TGI (OVCAR-8 ovarian) of 5.05 µM, a TGI (KM12 colon) of 6.32 µM and a TGI (HCT-15 colon) of 13.5 µM. For the same compound, the TGI (HOP-92 NSCLC) was 12.9 µM, the TGI (RXF 393 renal) was 5.86 µM and the TGI (COLO 205 colon) was 31.7 µM. It also gave a TGI (HOP-62 NSCLC) of 3.35 µM.

CCSc1nc(COC(=O)NC)c(COC(=O)NC)n1C was tested, and the TGI (SK-OV-3 ovarian) was over 95 µM, the TGI (HCT-116 colon) was over 100 µM and the TGI (EKVX NSCLC) was over 100 µM. For the same compound, the TGI (OVCAR-8 ovarian) was over 100 µM, the TGI (KM12 colon) was over 100 µM and the TGI (HCT-15 colon) was over 100 µM. It also gave a TGI (HOP-92 NSCLC) of over 90.6 µM, a TGI (RXF 393 renal) of 78.5 µM and a TGI (COLO 205 colon) of over 85.1 µM. For the same compound, the TGI (HOP-62 NSCLC) was over 100 µM.

COc1ccc(-c2ccc(/C=N/n3c(COc4ccc(Cl)cc4)n[nH]c3=S)o2)c([N+](=O)[O-])c1 was tested, and the GI50 (SK-OV-3 ovarian) was 19.9 µM, the TGI (SK-OV-3 ovarian) was 53.3 µM and the GI50 (HCT-116 colon) was 16.8 µM. It also gave a TGI (HCT-116 colon) of 40.7 µM, a GI50 (EKVX NSCLC) of 12.4 µM and a TGI (EKVX NSCLC) of 54.1 µM. For the same compound, the GI50 (OVCAR-8 ovarian) was 24.6 µM, the TGI (OVCAR-8 ovarian) was over 100 µM and the GI50 (KM12 colon) was 8.12 µM. The TGI (KM12 colon) was 41.3 µM, the GI50 (HCT-15 colon) was 16 µM and the TGI (HCT-15 colon) was 45.8 µM. For the same compound, the GI50 (HOP-92 NSCLC) was 15.1 µM, the TGI (HOP-92 NSCLC) was 43.8 µM and the GI50 (RXF 393 renal) was 12.7 µM. The TGI (RXF 393 renal) was 32.3 µM, the GI50 (COLO 205 colon) was 20.1 µM and the TGI (COLO 205 colon) was 45.2 µM. For the same compound, the GI50 (HOP-62 NSCLC) was 22.6 µM and the TGI (HOP-62 NSCLC) was 40.4 µM.

Work on CC(C)[C@@H](COC(C)(C)C)N=CN1CCc2c([nH]c3ccccc23)C1 yielded a TGI (SK-OV-3 ovarian) of over 100 µM, a TGI (HCT-116 colon) of over 100 µM and a TGI (EKVX NSCLC) of over 100 µM. For the same compound, the TGI (OVCAR-8 ovarian) was over 100 µM, the TGI (KM12 colon) was over 100 µM and the TGI (HCT-15 colon) was over 100 µM. It also gave a TGI (HOP-92 NSCLC) of 89.6 µM, a TGI (RXF 393 renal) of over 100 µM and a TGI (COLO 205 colon) of over 100 µM. For the same compound, the TGI (HOP-62 NSCLC) was over 100 µM.

Work on CCOC(=O)N1CCN(S(=O)(=O)c2oc(-c3ccc(Cl)cc3)nc2C#N)CC1 yielded a GI50 (SK-OV-3 ovarian) of 74.1 µM, a TGI (SK-OV-3 ovarian) of over 100 µM and a GI50 (HCT-116 colon) of 1.74 µM. For the same compound, the TGI (HCT-116 colon) was 3.7 µM, the GI50 (EKVX NSCLC) was 9.71 µM and the TGI (EKVX NSCLC) was 27.2 µM. It also gave a GI50 (OVCAR-8 ovarian) of 3.23 µM, a TGI (OVCAR-8 ovarian) of 23.3 µM and a GI50 (KM12 colon) of 10.5 µM. It also gave a TGI (KM12 colon) of 35.6 µM, a GI50 (HCT-15 colon) of 1.49 µM and a TGI (HCT-15 colon) of 3.3 µM. The GI50 (HOP-92 NSCLC) was 1.8 µM, the TGI (HOP-92 NSCLC) was 3.75 µM and the GI50 (RXF 393 renal) was 1.82 µM. For the same compound, the TGI (RXF 393 renal) was 3.25 µM, the GI50 (COLO 205 colon) was 2.05 µM and the TGI (COLO 205 colon) was 4.25 µM. It also gave a GI50 (HOP-62 NSCLC) of 13.5 µM and a TGI (HOP-62 NSCLC) of over 100 µM.

N#CC1C(N)=NNC12Nc1ccccc1N2 (stereo not given) was tested, and the GI50 (SK-OV-3 ovarian) was 30 µM, the TGI (SK-OV-3 ovarian) was over 100 µM and the GI50 (HCT-116 colon) was 34.1 µM. It also gave a TGI (HCT-116 colon) of over 100 µM, a GI50 (EKVX NSCLC) of 14.9 µM and a TGI (EKVX NSCLC) of 64.6 µM. For the same compound, the GI50 (OVCAR-8 ovarian) was 0.2 µM, the TGI (OVCAR-8 ovarian) was 21.4 µM and the GI50 (KM12 colon) was over 100 µM. The TGI (KM12 colon) was over 100 µM, the GI50 (HCT-15 colon) was 31.4 µM and the TGI (HCT-15 colon) was over 100 µM. For the same compound, the GI50 (HOP-92 NSCLC) was 2.2 µM, the TGI (HOP-92 NSCLC) was 34.5 µM and the GI50 (RXF 393 renal) was 0.335 µM. It also gave a TGI (RXF 393 renal) of 7.27 µM, a GI50 (COLO 205 colon) of 16.5 µM and a TGI (COLO 205 colon) of 48.9 µM. For the same compound, the GI50 (HOP-62 NSCLC) was 64.3 µM and the TGI (HOP-62 NSCLC) was over 100 µM.

CCO[C@@H]1C2C=CC(C2)[C@H]1[N+](=O)[O-] (stereo not given in full) was tested, and the TGI (SK-OV-3 ovarian) was over 100 µM, the TGI (HCT-116 colon) was over 100 µM and the TGI (EKVX NSCLC) was over 100 µM. It also gave a TGI (OVCAR-8 ovarian) of over 100 µM, a TGI (KM12 colon) of over 100 µM and a TGI (HCT-15 colon) of over 100 µM. For the same compound, the TGI (HOP-92 NSCLC) was over 100 µM, the TGI (RXF 393 renal) was over 100 µM and the TGI (COLO 205 colon) was over 100 µM. For the same compound, the TGI (HOP-62 NSCLC) was over 100 µM.
